“Also recorded” adds a separate entry of the source. Like-named read-outs stand apart in the source and are kept apart here.
Columns and labels:
RSa cells = test: DNA synthetic activity test ([^3 H]dTHD uptake into acid insoluble materials); format: cell-based, human; details: for activity at 0.1 µM: Homo sapiens, 24 h, RSa cells, read-out: DNA synthesis (% of control)
Text: Four established cell lines were used. These were MM-1CB, derived from tissues of malignant melanoma (level IV, pT4 N0 M0) in a person (Jpn. J. Dermatol. 96:947 (1986)); KT, derived from metastatic brain tumor in a person (J. Rad. Res. 26:59 (1985) and The 44th Meeting of Japanese Cancer Association, 718 (1985)); PLC/PRF/5, derived from human hepatoma (Brit. J. Cancer 34:509-515 (1976)) and a transformed cell line RSa (Virology 135:20-29 (1984), and J. Natl. Cancer Inst. 56:919-926 (1976)). [^3 H]dTHD uptake into acid insoluble materials were estimated in KT and RSa cells treated with the various agents, as described in J. Gen. Virol. […] 67:651-661 (1986).

KT cells = test: Microscopic study of morphology; format: cell-based, human; details: combination treatment, dipyridamole 0.1 μM and HuIFN-α 10 units/ml (FIG. 6)
Text: (§1) Cells seeded in test dishes were observed and photographed using OLYMPUS IMT-2 ([…] amplification).

MM-1CB = test: Microscopic study of morphology; format: cell-based, human; details: dipyridamole 0.1 μM with HuIFN-β 10 units/ml, 6 days (FIG. 2)
Text: as §1

PLC/PRF/5 cells = test: Microscopic study of morphology; format: cell-based, human; details: combination treatment, dipyridamole 0.1 μM and HuIFN-β 10 units/ml (FIG. 7)
Text: as §1

[1] = tested on: antiviral activity in culture medium; test: Antiviral activity (IFN production) in culture medium of treated cells; format: cell-based; details: 0.1 μM dipyridamole-treated cells
Text: Virol. 67:651-611 (1986).

MM-1CB cells [2] = test: Tumor growth in nude mice, treatment from 3 days after MM-1CB implantation; format: in vivo, human tumor cells in male athymic nude mice (BALB/cA JcL-nu); details: combination of dipyridamole and interferon, 3 days after injection, vs each agent alone (FIG. 9)
Procedure: Male athymic nude mice (BALB/cA JcL-nu) used were 4 week old and weighed 14 to 18 g at the beginning of the experiment. All mice were given a basal diet (FR-II, Funabashi Nojo Co., Ltd., Funabashi) ad libitum.
Control animals were treated with phosphate buffered saline.
On day 62 post tumor implantation the size of each tumor was measured by caliper (two dimensions) and the measurements were converted to an approximation of tumor weight employing the formula: (a×b^2)/2, where a and b are the length and width of tumor, respectively.

MM-1CB cells [3] = test: Growth rate of established tumors in nude mice; format: in vivo, human tumor cells in nude mice
Procedure: Growth rate of tumors after the apparent tumor appeared and then were treated with agents.
the two agents combination

MM-1CB cells [4] = test: Survival of MM-1CB cells after sequential dipyridamole / interferon β treatment; format: cell-based, human; details: vs simultaneous administration; cells cultured in dishes (FIG. 11)
Procedure: Experimental numbers (Exp. Nos.) 1, 2, and 3 were the results obtained under reported cell-culture-conditions. In Exp. Nos. 4 and 5, treatment with DP alone and without IFN β was done during […] of the experiment schedule, respectively. In Exp. No. 6 IFN β treatment alone, without the DP addition, was done after DP treatment alone for the first 24 hours of the experimental schedule; after the DP treatment culture medium was depleted and cells were washed three times with Eagle's minimal essential medium, followed by being cultured with medium containing IFN β.

DNA of MM-1CB cells = test: Alkaline sucrose gradient assay (DNA damage); format: cell-based, human; details: 10 μM dipyridamole 24 h then 10^3 IU/ml IFNβ 24 h (FIG. 12)
Procedure: Cells (2×10^5), prelabelled with [^14 C]Thymidine, were seeded in 60 mm culture dishes and then cultured with and without agents. After the indicated tie cells were scraped off from the dishes and suspended in ice-cold phosphate-buffer saline solution containing 10 mM EDTA.
The cell suspensions were then exposed to 100R of X-rays in order to facilitate the unwinding and separation of DNA strands, and the solution containing SDS was applied to the cells, 2% of the final concentration of sodium dodecil sulfate (SDS).
The cell lysates were layered on alkaline solution with 5-20% sucrose gradients containing 0.1M NaOH and 0.1M NaCl. Then the gradients were immediately centrifuged at 10,000 rpm for 17 hr at 20° C. in a Hitachi RPS55T rotor.
After centrifugation, solutions were fractionated and collected onto Whatmann 17 CHROMA paper strips. Radioactivity of acid-insoluble materials on the strips were counted in toluene based scintillator. The percentage of the total dpm in each fraction was calculated taking the input dpm as 100%.
C 10^3 IU/ml IFNβ exposure for 48 hr;

[5] = tested on: plasminogen activator-like protease; test: Protease activity after dipyridamole exposure (^125 I-fibrin release); format: cell-based, human (MM-1CB cells); details: dipyridamole alone; MM-1CB, 30 min (FIG. 13)
Text: Assay methods were similar to those described elsewhere (Suzuki et al., Mutation Res. 198:207-214 (1988)). Results were expressed as the total amount of ^125 I-radioactivity released from the labelled fibrin per protein contents.

SEKI-F melanoma cells = test: Survival after continuous exposure to dipyridamole and interferon β; format: cell-based, human
Text: Culture and the exposure conditions were the same as described in the previous manuscript.

[6] = tested on: MM-1CB, KT and PLC/PRF/5 cells; test: Anticellular action of HuIFN combined with dipyridamole (FIGS. 3-5); format: cell-based, human; details: FIGS. 3B, 4B and 5B
Procedure: Changes of medium with and without agents were carried out every other day. The viable cells were determined by trypan-blue exclusion test and counted with a hemocytometer. The survival percentage ratio was expressed as (counts of viable cells in test dishes per counts of viable cells in control dishes) x 100%, as described elsewhere in, e.g., Mutation Research 106:357-376 (1982) and […]. 67:651-661 (1986).

interferon effect = test: Enhancement of interferon effect in vitro; format: cell-based
[7] = tested on: chinese hamster ovary cells; details: in vitro and in vivo; cited from earlier work
[8] = tested on: ridgway osteogenic sarcoma; details: with MTX; cited from earlier work
LIZIO leukemia = details: with MTX; cited from earlier work
interferon in mice = details: I.V.; cited from earlier work
[9] = tested on: salvage pathway of DNA synthesis; details: cited from earlier work
[10] = tested on: nucleoside transport through the cell membrane; details: cited from earlier work
DNA = details: dipyridamole alone; cited from earlier work

For `OCCN(CCO)c1nc(N2CCCCC2)c2nc(N(CCO)CCO)nc(N3CCCCC3)c2n1` [dipyridamole, 2,6-bis(diethanolamine)-4,8-dipiperidino-pyrimido[5,4-d]pyrimidin], the “DNA synthesis inhibition, comparison in words” value (RSa cells; 0.1 μM dipyridamole or mopidamole, alone vs combined with HuIFN-α) was “inhibited less than with combined treatment with HuIFN-α; also recorded: significantly more effective than mopidamole/HuIFN-α”, the activity at 0.1 µM (RSa cells; agent 0.1 μM combined with HuIFN-α 1 unit/ml) was 61% and the activity at 0.1 µM (RSa cells; agent 0.1 μM, HuIFN-α 0 unit/ml) was 92%. For the same compound, the cellular morphological conditions (KT cells) was “showed impairment after the combination treatment”, the cell morphology (MM-1CB) was “morphologically impaired” and the cellular morphological conditions (PLC/PRF/5 cells) was “showed impairment after the combination treatment”. The “levels of antiviral activity in culture medium” value [1] was “no detectable levels of antiviral activity”, the “inhibition of tumor growth” value (MM-1CB cells [2]) was “more noticeably inhibited” and the “depression of tumor growth, combination” value (MM-1CB cells [3]; two agents given after tumor reached more than about 1 cm in diameter (FIG. 10)) was “not drastically effective in depressing tumor growth”. For the same compound, the “effect of dipyridamole treatment prior to interferon” value (MM-1CB cells [3]; vs simultaneous administration (FIG. 10)) was “more effective than a simultaneous administration of the two agents”, the “effect of dipyridamole pretreatment on proliferation” value (MM-1CB cells [4]) was “more effective than a simultaneous administration of the two agents” and the “DNA damage under alkaline assay conditions” value (DNA of MM-1CB cells) was “resulted in damaged DNA; also recorded: the most part DNA shifted into lower molecular mass”. For the same compound, the “activity of plasminogen activator-like protease” value [5] was “induced after a few minutes of treatment”, the “inhibitory effect on cell proliferation” value (SEKI-F melanoma cells; dipyridamole alone (FIG. 14)) was “little inhibitory effect on cell proliferation” and the “enhancement of cell proliferation inhibition induced by interferon” value (SEKI-F melanoma cells; with interferon β 100-1000 IU/ml, 6 days (FIG. 14)) was “can enhance cell proliferation inhibition induced by interferon”. For the same compound, the “most effective concentration for the synergistic enhancement of HuIFN action” value [6] was “less than 0.1 μM”, the “dose that enhances the interferon effect in vitro” value (interferon effect) was “less than 1 μM” and the “toxicity of methotrexate (MTX)” value [7] was “enhanced the toxicity of methotrexate (MTX)”. The “antitumor activity of MTX” value [8] was “not dramatically improved”, the “antitumor activity of MTX” value (LIZIO leukemia) was “not dramatically improved” and the “interferon induction in mice” value (interferon in mice) was “induced interferon in mice after I.V. administration”. The “block of the salvage pathway of DNA synthesis” value [9] was “effective blocker of the salvage pathway of DNA synthesis”, the nucleoside transport [10] was “can inhibit nucleoside transport through the cell membrane” and the DNA damage (DNA) was “does not damage DNA”.
